Tested on: HAS2 (Hyaluronan synthase 2)
Experiment: HAS2 gene expression in blue light irradiated human keratinocytes (HaCaT), Taqman real-time PCR
Format: cell-based
Settings: blue light 410 nm 120 J/cm^2, PLA 50 μM (8.3 ppm)
Protocol: The Lactobacillus plantarum APsulloc 331261 (KCCM11179P) strain used in Experimental Example above was inoculated into a medium containing MRS broth, phenylalanine at a concentration of 40 mM, and calcium carbonate at a concentration of 1%, and the culture medium was cultured for 3 days. The cells were removed by centrifugation, and 1 liter was prepared. An equal amount of ethyl acetate was added to the prepared culture medium and the reaction was performed, and the water layer and the ethyl acetate layer of the culture medium were waited for separation. The separated ethyl acetate layer was heated and distilled, and an appropriate amount of water (about 100 mL) was added to the remaining concentrate to prepare a Lactobacillus culture extract containing phenyllactic acid. […]
In addition, the hyaluronic acid production promotion effect of the culture medium of Lactobacillus strains prepared as shown in Table 1 was compared. The strains Lactobacillus plantarum APsulloc 331261 (KCCM11179P), Lactobacillus plantarum KCTC3108, Lactobacillus acidophilus KCTC3164, and Lactobacillus sakei KTCT3603 were inoculated into MRS broth, and 0.5% of the culture medium static-cultured at 35° C. for 3 days was added, and the gene expression amount of HAS2 (Hyaluronan synthase 2) was measured in the same manner as above.

Question: `O=C(O)C(O)Cc1ccccc1` (stereo not shown) [PLA, Phenyllactic acid] was tested. Which HAS2 gene expression did it give?
Answer: significantly improved the decrease in HAS2 gene expression caused by blue light

Source: patent US20250302712A1, “COMPOSITION FOR SKIN MOISTURIZING COMPRISING PHENYLLACTIC ACID” (AMOREPACIFIC CORPORATION, priority 2024, published 2025)
